# Experimental data reported in publication doi:10.1101/2024.02.20.581179v1, “Regulated mRNA recruitment in dinoflagellates is reflected in hyper-variable mRNA spliced leaders and novel eIF4Es” (biorxiv, 2024).
# Key:
# Type in all cases: binding
# mouse eIF4E-1 [1] = biological target: T1, mouse eIF4E-1 (Mus musculus, UniProt P63073); assay: SPR, Biacore T-200, steady state
# T1 construct: N-terminal GST tag, E. coli, GST-fusion dimer, tag kept
# eIF4E-1a = biological target: T2, eIF4E-1a (Amphidinium carterae, UniProt A0A0X9W7I2); assay: SPR, Biacore T-200, steady state
# T2 construct: N-terminal GST tag (TEV site), pGEX-4T(MCS)-TEV, E. coli Rosetta(DE3)pLysS, DTT treated, GST-fusion dimer by gel filtration; tag kept
# T2 sequence (A0A0X9W7I2 1-233): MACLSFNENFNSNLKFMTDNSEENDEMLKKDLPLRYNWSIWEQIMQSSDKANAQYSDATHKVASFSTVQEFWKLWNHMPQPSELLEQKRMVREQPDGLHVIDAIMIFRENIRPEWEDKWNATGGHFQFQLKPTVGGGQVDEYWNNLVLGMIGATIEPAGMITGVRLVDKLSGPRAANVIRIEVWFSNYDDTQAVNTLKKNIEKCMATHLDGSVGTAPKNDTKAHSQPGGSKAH
# eIF4E-2a = biological target: T3, eIF4E-2a (Amphidinium carterae, UniProt A0A109QBD6); assay: SPR, Biacore T-200, steady state
# T3 construct: N-terminal GST tag (TEV site), E. coli, GST-fusion dimer, tag kept
# T3 sequence (A0A109QBD6 1-255): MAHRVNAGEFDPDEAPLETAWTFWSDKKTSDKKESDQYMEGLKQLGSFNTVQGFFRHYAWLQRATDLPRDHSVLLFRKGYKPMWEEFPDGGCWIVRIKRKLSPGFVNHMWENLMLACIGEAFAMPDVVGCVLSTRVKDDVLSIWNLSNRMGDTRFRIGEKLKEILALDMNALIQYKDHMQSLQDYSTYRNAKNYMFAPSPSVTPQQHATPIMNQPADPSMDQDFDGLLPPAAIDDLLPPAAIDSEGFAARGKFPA
# From the text: SPR, Biacore T-200, steady state on eIF4E-2a
# eIF4E-1d1 [2] = biological target: T4, eIF4E-1d1 (Amphidinium carterae, UniProt A0A0X9VJN7); assay: SPR, Biacore T-200, steady state
# T4 construct: gene eIF4E-1d; N-terminal GST tag (TEV site), E. coli, GST-fusion dimer, tag kept (SPR); S-tagged in vitro translated protein in bead assay
# T4 sequence (A0A0X9VJN7 1-239): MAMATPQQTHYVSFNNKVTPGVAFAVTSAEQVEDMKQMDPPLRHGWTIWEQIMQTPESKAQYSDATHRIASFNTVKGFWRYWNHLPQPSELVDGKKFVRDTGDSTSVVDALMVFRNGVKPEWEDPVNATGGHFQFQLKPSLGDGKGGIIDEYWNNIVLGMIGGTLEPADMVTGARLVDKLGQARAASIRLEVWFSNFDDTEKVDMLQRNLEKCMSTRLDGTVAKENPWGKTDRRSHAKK
# eIF4E-1d1 [3] = biological target: T4, eIF4E-1d1; assay: cap-Sepharose pull-down of […] in vitro translated protein; details: ligand immobilised on Sepharose; S-tagged protein; 25 mM HEPES/KOH pH 7.2, 150 mM KCl, 200 μM GTP, 4 °C
# eIF4E-1c = biological target: T5, eIF4E-1c (Amphidinium carterae, UniProt A0A0X9VF44); assay: as above; details: ligand immobilised on Sepharose; S-tagged protein; 25 mM HEPES/KOH pH 7.2, 150 mM KCl, 200 μM GTP, 4 °C
# T5 construct: N-terminal S-tag, pCITE-4a, in vitro transcription/translation in rabbit reticulocyte lysate, 35S-Met labelled
# T5 sequence (A0A0X9VF44 1-244): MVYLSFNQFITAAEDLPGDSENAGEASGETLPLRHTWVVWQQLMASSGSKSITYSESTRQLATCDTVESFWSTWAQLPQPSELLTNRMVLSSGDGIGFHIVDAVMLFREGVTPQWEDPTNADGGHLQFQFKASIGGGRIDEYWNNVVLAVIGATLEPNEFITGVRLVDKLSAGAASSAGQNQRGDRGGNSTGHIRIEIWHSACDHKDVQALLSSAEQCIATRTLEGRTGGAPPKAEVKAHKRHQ
# mouse eIF4E-1 [4] = biological target: T1, mouse eIF4E-1; assay: SPR, Biacore T-200, kinetic fit
# From the text: SPR, Biacore T-200, kinetic fit on mouse eIF4E-1
# eIF4E-1d1 [5] = biological target: T4, eIF4E-1d1; assay: SPR, Biacore T-200, kinetic fit
# From the text: SPR, Biacore T-200, kinetic fit on eIF4E-1d1
# T1 sequence (P63073 2-217): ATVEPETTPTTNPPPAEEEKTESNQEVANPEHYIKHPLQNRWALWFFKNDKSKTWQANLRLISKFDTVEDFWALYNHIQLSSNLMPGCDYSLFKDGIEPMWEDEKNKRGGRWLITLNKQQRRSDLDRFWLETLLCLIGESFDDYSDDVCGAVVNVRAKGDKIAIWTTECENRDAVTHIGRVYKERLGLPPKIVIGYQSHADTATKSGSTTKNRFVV
Kd (mouse eIF4E-1 [1]) [µM],Kd (eIF4E-1a) [µM],Kd (eIF4E-2a) [µM],Kd (eIF4E-1d1 [2]) [µM],Kd (mouse eIF4E-1 [4]) [µM],Kd (eIF4E-1d1 [5]) [µM],SMILES,cap-Sepharose pull-down of 35S in vitro translated protein (eIF4E-1d1 [3]),cap-Sepharose pull-down of 35S in vitro translated protein (eIF4E-1c)
59.7 ± 49.3,17.5 ± 4.68,469 ± 220,34.5 ± 18.6,–,–,C[n+]1cn([C@@H]2O[C@H](COP(=O)(O)OP(=O)(O)OP(=O)(O)OC[C@H]3O[C@@H](n4cnc5c(=O)[nH]c(N)nc54)[C@H](O)[C@@H]3O)[C@@H](O)[C@H]2O)c2nc(N)[nH]c(=O)c21 [m^7GpppG],–,–
316 ± 38,1730 ± 3700,665 ± 19,1010 ± 110,–,–,Nc1nc2c(ncn2[C@@H]2O[C@H](COP(=O)(O)OP(=O)(O)OP(=O)(O)OC[C@H]3O[C@@H](n4cnc5c(=O)[nH]c(N)nc54)[C@H](O)[C@@H]3O)[C@@H](O)[C@H]2O)c(=O)[nH]1 [GpppG],–,–
–,–,–,–,–,–,CN(C)c1nc2c(c(=O)[nH]1)[n+](C)cn2[C@@H]1O[C@H](COP(=O)(O)OP(=O)(O)OP(=O)(O)O)[C@@H](O)[C@H]1O [TMG],eIF4E-1c and eIF4E-1d1 showed some affinity for the TMG cap analogue,eIF4E-1c and eIF4E-1d1 showed some affinity for the TMG cap analogue
–,10.8 ± 3.1,–,–,69.8,82.4,C[n+]1cn([C@@H]2O[C@H](COP(=O)(O)OP(=O)(O)OP(=O)(O)OC[C@H]3O[C@@H](n4ccc(N)nc4=O)[C@H](O)[C@@H]3O)[C@@H](O)[C@H]2O)c2nc(N)[nH]c(=O)c21 [m^7GpppC],–,–
